In PMC10447463, “Data-mining unveils structure–property–activity correlation of viral infectivity enhancing self-assembling peptides” (Nature Communications, 2023):
Read-outs that look alike come from different tables or passages of the source.

Tests used:
[1] = Conversion rate (CR) assay with fluorescamine; format: physicochemical; set-up: key to CR: % = 100−100×filtrate/original fluorescence intensity; conditions: conversion rate, fluorescamine assay; for CR / %: Fig. S7 panel B
Experimental: For ATR FT–IR spectroscopy measurements, 200 µL of the respective 1 mg/mL PNF solution was lyophilized and the resulting powder used for measurement. All spectra were recorded on a Bruker Tensor 27 spectrometer with a diamond crystal as ATR element (PIKE MiracleTM, spectral resolution 2 cm^-1). Every sample was measured with 64 scans. Data were analyzed with OriginLab software and calculation of β–sheet content was conducted according to a previous report. TEM. For TEM measurements 5 µL of PNF fibrils (1 mg/mL) were placed on copper grids coated with carbon and formvar layer (300 mesh, Plano GmbH). After 10 min incubation time, the grids were staining with 4% uranyl acetate solution for 2.5 min and washed with water. Measurements were performed on a Jeol 1400 electron microscope with 120 kV acceleration voltage. CR Assay. For the determination of the amount of peptide monomer converting into nanostructures the amine reactive dye fluorescamine was used analogous to a previous reported protocol. Briefly, 100 µL of the preformed PNF solution was centrifuged in a Vivaspin 500 tube (3 kDa MWCO) to separate fibers from free peptide monomer (16200 x g, 4 °C, 45 min). The filtrate and 100 μL of the non-filtered PNF sample were lyophilized and dissolved in 30 μL DMSO. 10 μL of the filtrate and non-filtered DMSO samples were submitted in a black UV Star® 384 microliter well–plates (Greiner bio–one) and 3 μL of the fluorescamine solution (10 mg/mL, DMSO) was added to measure the fluorescence enhancement. After 20 min of incubation at RT, fluorescence was recorded on an Infinite® M1000 PRO microplate reader (Tecan) at λem = 470 nm upon excitation at λex = 365 nm with 10 nm bandwidths and multiple reads per well (3×3). Measurements were repeated in triplicates and averaged with standard deviation. All values were calculated as n-fold fluorescence enhancement (DMSO only as a reference was set to 1). The conversion rate CR was defined according to the equation Eq. (3).3 CR=100−100×fluorescenceintensityfiltrate/fluorescenceintensityoriginal[%]

[2] = β-sheet content by ATR-FT-IR; format: physicochemical; conditions: Fig. S7 panel A; β-sheet content by ATR-FT-IR
How it was run: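 Fluorescence at 470 nm (365 nm excitation) was read 20 min after adding fluorescamine to DMSO-dissolved filtrate and unfiltered PNF, then CR computed as 100 − 100 × filtrate/original. Secondary structure came from ATR FT-IR spectra of lyophilized PNF powder.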

[3] = format: physicochemical; conditions: for ThT Cat. / ThT-Fluorescence (categorical): ThT-active if fluorescence at least twice the control
How it was run: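 Fibrils (1 mg/mL solution) were mixed with 50 µM ThT in PBS for 15 min at RT, and fluorescence was read at λex 440/λem 488 nm against a PBS blank, as a triplicate mean ± SD. Zeta potential came from electrophoretic mobility (Smoluchowski) after 1 d aggregation at 1 mg/mL in PBS pH 7.4, diluted into 1 mM KCl.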

[4] = system: HIV-1 infection of TZM-bl cells; assay: HIV-1 infectivity enhancement assay, β-galactosidase luminescence; format: cell-based; conditions: for Rel-EFC / Log10 Infection Rel EFC: 1.3 µM peptide; for Rel-EFC: infection relative to EF-C (QCKIKQIINMWQ = 1); for Log10 Infection Rel EFC: log10 of infection relative to EF-C; for Log Infectivity: Log10 infection relative to EF-C, TZM-bl cells, asymmetric std dev errors; for Log10 Infection Rel EF-C: HIV-1 infection of TZM-bl cells; for Log10 of Rel to EFC (Feb2021): Log10 of infection relative to EF-C, all peptides of FigS16
[5] = ThT fluorescence category, 1 if Rel. ThT >2
[6] = Fig. S7 panel A (plotted against β-sheet content)
[7] = Fig. S7 panel B (plotted against CR), rounded to two decimals
[8] = Log10 of infection rate relative to EF-C, Figure 3A source data
[9] = infection rate relative to EF-C, log10, data of Figure 2D
[10] = infection rate relative to EF-C, log10, source data of Figure 2C

## CEFEFQFNMWQ
[1]
  CR / %: 98.6%
  CR: 98.63
[2]
  b -sheet / %: 51.48%
[3]; Fig S10 panel D
  Tht category (> 2 to blank = +): 1 (ThT. Cat is 1, if Rel. ThT >2)
[3]; Fig S10 panel E
  ThT Cat.: 1 (ThT. Cat is 1, if Rel. ThT >2)
[3]; ThT category, 1 if Rel. ThT >2
  ThT Cat,: 1 (ThT. Cat is 1, if Rel. ThT >2)
[3]; [5]
  ThT Cat.: 1 (ThT. Cat is 1, if Rel. ThT >2)
[3]
  ThT Cat. / ThT-Fluorescence (categorical): 1 (ThT. Cat is 1, if Rel. ThT >2)
[4]
  Rel-EFC: 0,14
  Log10 Infection Rel EFC: -0,85
  Log10 of Rel to EFC (Feb2021): -0.85
[4]; [6]
  Log Infectivity: -0.8509
[4]; [7]
  Log Infectivity: -0.85
[4]; [8]
  Log10 Infection Rel EF-C: -0.85
[4]; [9]
  Log10 Infection Rel EF-C: -0.8509
[4]; [10]
  Log10 Infection Rel EF-C: -0.8509

## CEIEIQINM
[1]
  CR / %: 43%
  CR: 43
[2]
  b -sheet / %: 46.31%
[3]; Fig S10 panel D
  Tht category (> 2 to blank = +): 1 (ThT. Cat is 1, if Rel. ThT >2)
[3]; Fig S10 panel E
  ThT Cat.: 1 (ThT. Cat is 1, if Rel. ThT >2)
[3]; FigS12 panel A
  Tht category (> 2 to blank = +): 1 (ThT. Cat is 1, if Rel. ThT >2)
[3]; FigS12 panel B
  ThT Cat,: 1 (ThT. Cat is 1, if Rel. ThT >2)
[3]; ThT category, 1 if Rel. ThT >2
  ThT Cat,: 1 (ThT. Cat is 1, if Rel. ThT >2)
[3]; [5]
  ThT Cat.: 1 (ThT. Cat is 1, if Rel. ThT >2)
[3]
  ThT Cat. / ThT-Fluorescence (categorical): 1 (ThT. Cat is 1, if Rel. ThT >2)
[4]
  Rel-EFC: 0,07
  Log10 Infection Rel EFC: -1,19
[4]; [6]
  Log Infectivity: -1.186
[4]; [7]
  Log Infectivity: -1.19
[4]; [8]
  Log10 Infection Rel EF-C: -1.19
[4]; [9]
  Log10 Infection Rel EF-C: -1.186
[4]; [10]
  Log10 Infection Rel EF-C: -1.186

## CEIEIQINMWQ
[1]
  CR / %: 67%
  CR: 66.95
[2]
  b -sheet / %: 49.9%
[3]; Fig S10 panel D
  Tht category (> 2 to blank = +): 1 (ThT. Cat is 1, if Rel. ThT >2)
[3]; Fig S10 panel E
  ThT Cat.: 1 (ThT. Cat is 1, if Rel. ThT >2)
[3]; ThT category, 1 if Rel. ThT >2
  ThT Cat,: 1 (ThT. Cat is 1, if Rel. ThT >2)
[3]; [5]
  ThT Cat.: 1 (ThT. Cat is 1, if Rel. ThT >2)
[3]
  ThT Cat. / ThT-Fluorescence (categorical): 1 (ThT. Cat is 1, if Rel. ThT >2)
[4]
  Rel-EFC: 0,22
  Log10 Infection Rel EFC: -0,66
  Log10 of Rel to EFC (Feb2021): -0.66
[4]; [6]
  Log Infectivity: -0.6602
[4]; [7]
  Log Infectivity: -0.66
[4]; [8]
  Log10 Infection Rel EF-C: -0.66
[4]; [9]
  Log10 Infection Rel EF-C: -0.6602
[4]; [10]
  Log10 Infection Rel EF-C: -0.6602

## CKAKAQA
[1]
  CR / %: 44%
  CR: 44
[2]
  b -sheet / %: 34.73%
[3]; Fig S10 panel D
  Tht category (> 2 to blank = +): 0 (ThT-inactive (N-Fold <2))
[3]; Fig S10 panel E
  ThT Cat.: 0 (ThT-inactive (N-Fold <2))
[3]; FigS12 panel A
  Tht category (> 2 to blank = +): 0 (ThT-inactive (N-Fold <2))
[3]; FigS12 panel B
  ThT Cat,: 0 (ThT-inactive (N-Fold <2))
[3]; ThT category, 1 if Rel. ThT >2
  ThT Cat,: 0 (ThT-inactive (N-Fold <2))
[3]; [5]
  ThT Cat.: 0 (ThT-inactive (N-Fold <2))
[3]
  ThT Cat. / ThT-Fluorescence (categorical): 0 (ThT-inactive (N-Fold <2))
[4]
  Rel-EFC: 0,03
  Log10 Infection Rel EFC: -1,5
[4]; [6]
  Log Infectivity: -1.501
[4]; [7]
  Log Infectivity: -1.5
[4]; [8]
  Log10 Infection Rel EF-C: -1.5
[4]; [9]
  Log10 Infection Rel EF-C: -1.501
[4]; [10]
  Log10 Infection Rel EF-C: -1.501
